pEC50, pIC50: −log10 of the molar value.
Columns and labels:
[1] = In vitro binding affinity for PPAR-alpha; parameters: species or system Homo sapiens
[2] = biological target: T1, Peroxisome proliferator-activated receptor gamma (Homo sapiens, UniProt P37231); test: In vitro binding affinity for PPAR-gamma
T1 sequence (P37231 whole entry): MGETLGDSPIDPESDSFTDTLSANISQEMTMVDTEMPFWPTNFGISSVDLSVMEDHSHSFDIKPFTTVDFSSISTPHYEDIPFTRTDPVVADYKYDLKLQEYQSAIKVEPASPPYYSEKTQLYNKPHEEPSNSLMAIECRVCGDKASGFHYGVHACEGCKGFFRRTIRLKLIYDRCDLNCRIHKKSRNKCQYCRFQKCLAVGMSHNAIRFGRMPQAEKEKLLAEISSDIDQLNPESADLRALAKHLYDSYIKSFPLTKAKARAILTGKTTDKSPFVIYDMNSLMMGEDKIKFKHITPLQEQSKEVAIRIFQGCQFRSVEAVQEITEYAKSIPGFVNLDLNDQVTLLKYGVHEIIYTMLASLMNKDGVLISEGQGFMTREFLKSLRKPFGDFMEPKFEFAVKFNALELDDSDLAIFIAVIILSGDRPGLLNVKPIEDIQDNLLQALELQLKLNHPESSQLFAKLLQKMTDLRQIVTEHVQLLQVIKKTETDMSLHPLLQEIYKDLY

[3] = biological target: T2, Peroxisome proliferator-activated receptor delta (Homo sapiens, UniProt Q03181); test: In vitro binding affinity for PPAR-delta
T2 sequence (Q03181 whole entry): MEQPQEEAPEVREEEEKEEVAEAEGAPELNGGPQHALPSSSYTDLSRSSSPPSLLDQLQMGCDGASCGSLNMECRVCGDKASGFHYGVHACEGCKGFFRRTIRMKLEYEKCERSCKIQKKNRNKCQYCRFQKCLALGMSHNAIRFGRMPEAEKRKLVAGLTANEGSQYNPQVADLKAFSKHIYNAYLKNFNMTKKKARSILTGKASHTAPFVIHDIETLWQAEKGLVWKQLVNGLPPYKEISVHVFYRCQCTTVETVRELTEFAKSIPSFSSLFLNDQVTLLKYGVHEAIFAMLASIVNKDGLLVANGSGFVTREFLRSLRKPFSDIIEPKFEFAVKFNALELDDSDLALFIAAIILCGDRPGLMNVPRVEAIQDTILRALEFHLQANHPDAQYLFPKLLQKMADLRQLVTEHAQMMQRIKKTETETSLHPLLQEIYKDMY

[4] = biological target: T3, Peroxisome proliferator-activated receptor alpha (Canis lupus familiaris, UniProt Q95N78); test: Effective concentration against canine PPAR-alpha in Gal4 transactivation assay
T3 sequence (Q95N78 whole entry): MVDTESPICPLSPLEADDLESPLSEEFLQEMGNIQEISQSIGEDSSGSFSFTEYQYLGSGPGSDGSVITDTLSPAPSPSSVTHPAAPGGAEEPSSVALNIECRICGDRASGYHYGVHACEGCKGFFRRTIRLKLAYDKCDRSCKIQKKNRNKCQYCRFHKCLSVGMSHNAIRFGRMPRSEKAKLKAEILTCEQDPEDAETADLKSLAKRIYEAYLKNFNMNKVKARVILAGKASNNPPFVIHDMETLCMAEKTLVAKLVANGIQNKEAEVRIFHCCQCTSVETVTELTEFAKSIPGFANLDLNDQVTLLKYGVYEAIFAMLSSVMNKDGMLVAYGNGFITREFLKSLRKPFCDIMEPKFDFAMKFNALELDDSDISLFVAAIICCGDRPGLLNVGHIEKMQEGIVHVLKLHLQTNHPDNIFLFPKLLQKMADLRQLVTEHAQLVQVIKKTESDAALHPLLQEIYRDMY

[5] = biological target: T1, Peroxisome proliferator-activated receptor gamma; test: Effective concentration against human PPAR-gamma in Gal4 transactivation assay; 30% response at 3 uM; assay type: functional
[6] = biological target: T4, Peroxisome proliferator-activated receptor alpha (Homo sapiens, UniProt Q07869); test: Effective concentration against human PPAR-alpha in Gal4 transactivation assay; assay type: functional
T4 sequence (Q07869 whole entry): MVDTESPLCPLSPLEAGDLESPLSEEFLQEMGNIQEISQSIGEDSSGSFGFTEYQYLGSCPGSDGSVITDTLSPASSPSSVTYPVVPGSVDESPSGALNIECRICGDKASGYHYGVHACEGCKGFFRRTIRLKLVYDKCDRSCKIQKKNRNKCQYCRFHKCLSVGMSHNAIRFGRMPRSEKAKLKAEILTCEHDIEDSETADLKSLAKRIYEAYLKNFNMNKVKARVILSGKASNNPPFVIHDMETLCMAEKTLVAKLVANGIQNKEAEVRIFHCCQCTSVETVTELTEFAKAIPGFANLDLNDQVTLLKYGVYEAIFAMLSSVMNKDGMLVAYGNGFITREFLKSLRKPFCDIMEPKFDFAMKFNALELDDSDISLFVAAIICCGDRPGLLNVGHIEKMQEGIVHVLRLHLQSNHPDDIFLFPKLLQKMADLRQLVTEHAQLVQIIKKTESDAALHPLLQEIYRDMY

[7] = biological target: T1, Peroxisome proliferator-activated receptor gamma; test: Effective concentration against human PPAR-gamma in Gal4 transactivation assay; 12% response at 3 uM; assay type: functional
[8] = biological target: T1, Peroxisome proliferator-activated receptor gamma; test: Effective concentration against human PPAR-gamma in Gal4 transactivation assay; 19% response at 3 uM; assay type: functional
Cricetinae gen. sp. [9] = test: Effect at an oral dose of 0.1 mg/kg/day for 14 days on serum cholesterol level of hamster; assay type: functional, Cricetulus griseus
Cricetinae gen. sp. [10] = test: Effect at an oral dose of 0.1 mg/kg/day for 14 days on serum triglyceride level of hamster; assay type: functional, Cricetulus griseus
Cricetinae gen. sp. [11] = test: Effect at an oral dose of 0.3 mg/kg/day for 14 days on serum triglyceride level of hamster; assay type: functional, Cricetulus griseus
[12] = biological target: T1, Peroxisome proliferator-activated receptor gamma; test: Effective concentration against human PPAR-gamma in Gal4 transactivation assay; 25% response at 3 uM; assay type: functional
Cricetinae gen. sp. [13] = test: Effect at an oral dose of 0.3 mg/kg/day for 14 days on serum cholesterol level of hamster; assay type: functional, Cricetulus griseus
Canis familiaris [14] = test: Effect on cholesterol lowering in male Beagle dog at an oral dose of 4 mkd for 7 days; assay type: functional, Canis lupus familiaris
Canis familiaris [15] = test: Effect on cholesterol lowering in male Beagle dog at an oral dose of 4 mkd for 10 days; assay type: functional, Canis lupus familiaris
Canis familiaris [16] = test: Effect on cholesterol lowering in male Beagle dog at an oral dose of 4 mkd for 3 days; assay type: functional, Canis lupus familiaris
Canis familiaris [17] = test: Effect on cholesterol lowering in male Beagle dog at an oral dose of 4 mkd for 15 days; assay type: functional, Canis lupus familiaris
[18] = biological target: T1, Peroxisome proliferator-activated receptor gamma; test: Effective concentration required to produce 50% of maximal reporter activity in cell based transactivation assay using human PPAR-gamma-GAL4 chimeric receptor; 6% response at 3 uM ccompound concentration; assay type: functional

| SMILES | pIC50 [1] | pIC50 [2] | pIC50 [3] | pEC50 [4] | also measured |
| --- | --- | --- | --- | --- | --- |
| CCC1(C(=O)O)Cc2cc(OCCCOc3ccc(SC(F)(F)F)cc3Cl)ccc2O1 (racemic) | 8.52 | 5.17 | < 4.82 | > 9.00 | pEC50 [5]: < 5.52; pEC50 [6]: 8.52 |
| CCC1(C(=O)O)Cc2cc(OCCCOc3ccc(OCC(F)(F)F)cc3Cl)ccc2O1 (racemic) | 7.49 | < 4.82 | < 4.82 | 8.10 | pEC50 [8]: < 5.52; pEC50 [6]: 7.47 |
| CC(C)[C@@]1(C(=O)O)Cc2cc(OCCCOc3ccc(OC(F)(F)F)cc3Cl)ccc2O1 | 8.52 | < 4.82 | < 4.82 | > 9.00 | TC (Cricetinae gen. sp. [9]): -43%; TG (Cricetinae gen. sp. [10]): -52%; TG (Cricetinae gen. sp. [11]): -52%; pEC50 [12]: < 5.52; TC (Cricetinae gen. sp. [13]): -54% |
| CCC(C)(C)C(=O)O[C@H]1C[C@@H](C)C=C2C=C[C@H](C)[C@H](CC[C@@H]3C[C@@H](O)CC(=O)O3)[C@H]21 [SIMVASTATIN] |  |  |  |  | TC (Canis familiaris [14]): -13.3%; TC (Canis familiaris [15]): -9.9%; TC (Canis familiaris [16]): -7.8%; TC (Canis familiaris [17]): -17.1% |
| O=C(O)C1(Cc2ccccc2)Cc2cc(OCCCOc3ccc(OC(F)(F)F)cc3Cl)ccc2O1 (racemic) | 6.56 | < 4.82 | < 4.30 |  |  |

More lines, in order of rising pIC50 [1], values ahead:

| pIC50 [1] | pIC50 [2] | pIC50 [3] | pEC50 [4] | SMILES | also measured |
| --- | --- | --- | --- | --- | --- |
| 5.65 | < 4.82 | < 4.30 |  | CC[C@]1(C(=O)O)Cc2cc(OCCCOc3ccc(OC(F)(F)F)cc3Cl)ccc2O1 |  |
| 5.86 | < 4.30 | < 4.30 |  | CC(C)(C)[C@@]1(C(=O)O)Cc2cc(OCCOc3ccc(OC(F)(F)F)cc3Cl)ccc2O1 |  |
| 5.89 | < 4.30 | < 4.82 |  | CC(C)[C@]1(C(=O)O)Cc2cc(OCCCOc3ccc(OC(F)(F)F)cc3Cl)ccc2O1 |  |
| 6.10 | < 4.82 | < 4.82 | 5.87 | O=C(O)C1Cc2cc(OCCCOc3ccc(OCC(F)(F)F)cc3Cl)ccc2O1 (racemic) |  |
| 6.64 | < 4.30 | < 4.82 | 6.89 | CC[C@@]1(C(=O)O)Cc2cc(OCCCOc3ccc(OCC(F)(F)F)cc3)ccc2O1 |  |
| 8.15 | < 4.82 | < 4.30 | 8.70 | CC(C)(C)C1(C(=O)O)Cc2cc(OCCCOc3ccc(CC(F)(F)F)cc3Cl)ccc2O1 (racemic) | pEC50 [18]: < 5.52 |
| 8.40 | 5.25 | < 4.30 | 8.70 | CCC1(C(=O)O)Cc2cc(OCCCOc3ccc(CC(C)(C)C)cc3Cl)ccc2O1 (racemic) | pEC50 [7]: < 5.52 |
